Test results reported in BindingDB's records for doi:10.7270/Q2ZP450S (Catholic University of Daegu, 2017).

biological target: T1, Tyrosine-protein phosphatase non-receptor type 1 (Homo sapiens, UniProt P18031); assay: PTP1B Assay; details: pH 6; 37 °C
T1 sequence (P18031 whole entry): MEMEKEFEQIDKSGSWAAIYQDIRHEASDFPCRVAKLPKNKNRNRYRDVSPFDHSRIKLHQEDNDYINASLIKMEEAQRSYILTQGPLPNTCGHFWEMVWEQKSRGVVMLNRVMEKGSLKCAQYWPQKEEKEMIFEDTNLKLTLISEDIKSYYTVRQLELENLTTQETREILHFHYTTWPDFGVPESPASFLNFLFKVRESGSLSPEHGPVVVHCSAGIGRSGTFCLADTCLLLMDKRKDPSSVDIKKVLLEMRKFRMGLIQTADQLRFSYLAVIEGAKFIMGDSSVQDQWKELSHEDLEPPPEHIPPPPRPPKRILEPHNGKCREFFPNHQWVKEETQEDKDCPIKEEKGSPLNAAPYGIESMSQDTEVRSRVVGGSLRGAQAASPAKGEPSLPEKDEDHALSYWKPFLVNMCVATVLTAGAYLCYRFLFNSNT
Method: In each 96-well plates (total 200 μL of volume), there were 2 mM p-NPP and PTP1B (0.05-0.1 μg) in a buffer containing 50 mM citrate (pH 6.0), 0.1 M NaCl, 1 mM EDTA, and 1 mM dithiothreitol (DTT) with or without test compound, following by pre-incubated at 37 °C for 10 min, and then implemented with 50 μL of p-NPP. The reaction was finally added with 10 M NaOH.

In order of rising IC50:
1. COc1ccc(-c2ccc(O)cc2)c(C(c2ccc(O)cc2)c2ccc(O)cc2)c1C#Cc1ccc(O)cc1 [PTP1B spring 7 (7)]  4.8 µM
2. Cc1ccc(-c2ccc(O)cc2)c(C(=C2C=CC(=O)C=C2)c2ccc(O)cc2)c1C#Cc1ccc(O)cc1 [Selaginellin U (2)]  13.8 µM
3. COc1cc(C#Cc2c(CO)ccc(-c3ccc(O)cc3)c2C(=C2C=CC(=O)C=C2)c2ccc(O)cc2)ccc1O [Selaginellin V (3)]  14.5 µM
4. O=C1C=CC(=C(c2ccc(O)cc2)c2c(C#Cc3ccc(O)cc3)cccc2-c2ccc(O)cc2O)C=C1 [Selaginellin W (4)]  14.6 µM
5. O=C1C=CC(=C(c2ccc(O)cc2)c2c(-c3ccc(O)cc3O)ccc(CO)c2C#Cc2ccc(O)cc2)C=C1 [PTP1B spring 5 (5)]  15.9 µM
6. O=C1C=CC(=C(c2ccc(O)cc2)c2c(C#Cc3ccc(O)cc3)cccc2-c2ccc(O)cc2)C=C1 [Selaginellin T (1)]  58 µM

In order of falling Ki:
1. O=C1C=CC(=C(c2ccc(O)cc2)c2c(-c3ccc(O)cc3O)ccc(CO)c2C#Cc2ccc(O)cc2)C=C1 [PTP1B spring 5 (5)]  13.9 µM
2. COc1cc(C#Cc2c(CO)ccc(-c3ccc(O)cc3)c2C(=C2C=CC(=O)C=C2)c2ccc(O)cc2)ccc1O [Selaginellin V (3)]  11.3 µM
3. O=C1C=CC(=C(c2ccc(O)cc2)c2c(C#Cc3ccc(O)cc3)cccc2-c2ccc(O)cc2O)C=C1 [Selaginellin W (4)]  11.1 µM
4. Cc1ccc(-c2ccc(O)cc2)c(C(=C2C=CC(=O)C=C2)c2ccc(O)cc2)c1C#Cc1ccc(O)cc1 [Selaginellin U (2)]  9.7 µM
5. COc1ccc(-c2ccc(O)cc2)c(C(c2ccc(O)cc2)c2ccc(O)cc2)c1C#Cc1ccc(O)cc1 [PTP1B spring 7 (7)]  3 µM
